Laboratory results reported in the CheMixHub viscosity set.

Experiment: xn = mol fraction of the nth substance listed

COCCO + OCCO
viscosity [mPa·s], 101 kPa
Conditions	x2 = 0.1359	x2 = 0.2614	x2 = 0.3776	x2 = 0.4859	x2 = 0.5861	x2 = 0.6799	x2 = 0.7676	x2 = 0.8499	x2 = 0.9272
293.15 K	2.281	3.192	3.871	5.319	6.607	8.77	10.8	14	17.35
298.15 K	2.034	2.799	3.383	4.577	5.633	7.281	9.021	11.5	14.18
303.15 K	1.826	2.471	2.981	3.965	4.84	6.282	7.583	9.579	11.66
308.15 K	1.652	2.2	2.644	3.468	4.194	5.372	6.436	8.035	9.727
313.15 K	1.494	1.97	2.364	3.051	3.663	4.643	5.522	6.84	8.193
318.15 K	1.359	1.775	2.14	2.718	3.218	4.04	4.701	5.855	6.98
323.15 K	1.241	1.604	1.938	2.399	2.851	3.547	4.102	5.049	5.979

CCCC[N+](CCCC)(CCCC)Cc1ccccc1.[Cl-] + OCCOCCO
Conditions	viscosity [mPa·s]
293.15 K, 100 kPa, x1 = 0.25	433.5

CC(=O)OC(C)C + c1ccccc1
308.15 K, 101 kPa
Conditions	viscosity [mPa·s]
x2 = 0.0634	0.4362
x2 = 0.2053	0.4409
x2 = 0.3085	0.4455
x2 = 0.4037	0.4502
x2 = 0.5044	0.4564
x2 = 0.6051	0.4587
x2 = 0.6985	0.4735
x2 = 0.8005	0.4854
x2 = 0.9366	0.502

CC(O)=S + c1ccccc1
298.1 K, 101 kPa
Conditions	viscosity [mPa·s]
x1 = 0.2	0.584
x1 = 0.4	0.584
x1 = 0.5	0.589
x1 = 0.6	0.599
x1 = 0.8	0.631

CCCC(=O)O + c1ccccc1
298.15 K, 101 kPa
Conditions	viscosity [mPa·s]
x1 = 0.04	0.612
x1 = 0.09	0.624
x1 = 0.14	0.639
x1 = 0.18	0.656
x1 = 0.37	0.747
x1 = 0.47	0.808
x1 = 0.57	0.903
x1 = 0.78	1.1

CCCCBr + c1ccccc1
101 kPa
Conditions	viscosity [mPa·s]
298.15 K, x1 = 0.066	0.588
298.15 K, x1 = 0.1	0.583
298.15 K, x1 = 0.134	0.574
308.15 K, x1 = 0.066	0.518
308.15 K, x1 = 0.1	0.515
308.15 K, x1 = 0.134	0.51
308.15 K, x2 = 0.094	0.5122
308.15 K, x2 = 0.2084	0.5022
308.15 K, x2 = 0.2997	0.4939
308.15 K, x2 = 0.395	0.4879
308.15 K, x2 = 0.5053	0.4828
308.15 K, x2 = 0.5954	0.4805
308.15 K, x2 = 0.6993	0.4823
308.15 K, x2 = 0.8012	0.4853
308.15 K, x2 = 0.9023	0.4943
318.15 K, x1 = 0.066	0.459
318.15 K, x1 = 0.1	0.457
318.15 K, x1 = 0.134	0.454
323.15 K, x1 = 0.066	0.432
323.15 K, x1 = 0.1	0.431
323.15 K, x1 = 0.134	0.428

CCCCNCCCC + c1ccccc1
viscosity [mPa·s], 101 kPa
Conditions	x1 = 0.01077	x1 = 0.02009	x1 = 0.02993	x1 = 0.03893	x1 = 0.04865	x1 = 0.05929	x1 = 0.06883	x1 = 0.07963	x1 = 0.08917
303.15 K	0.5674	0.5699	0.5746	0.5771	0.5809	0.584	0.5864	0.5907	0.5931
313.15 K	0.4959	0.4998	0.503	0.5067	0.511	0.5134	0.515	0.5177	0.5198

CCOC(=O)C(=O)OCC + c1ccccc1
303.15 K, 101 kPa
Conditions	viscosity [mPa·s]
x1 = 0.0682	0.5918
x1 = 0.1415	0.6316
x1 = 0.2203	0.6727
x1 = 0.3054	0.7255
x1 = 0.3972	0.7942
x1 = 0.4972	0.8854
x1 = 0.6066	1.009
x1 = 0.7258	1.164
x1 = 0.8557	1.374

COCCO + c1ccccc1
viscosity [mPa·s]
Conditions	298.15 K	303.15 K	308.15 K
101 kPa, x1 = 0.0543	0.624	–	0.541
101 kPa, x1 = 0.1499	0.669	–	0.571
101 kPa, x1 = 0.2235	0.708	–	0.598
101 kPa, x1 = 0.3508	0.788	–	0.654
101 kPa, x1 = 0.4496	0.862	–	0.707
101 kPa, x1 = 0.4961	0.902	–	0.735
101 kPa, x1 = 0.5462	0.947	–	0.768
101 kPa, x1 = 0.6455	1.049	–	0.842
101 kPa, x1 = 0.7524	1.18	–	0.938
101 kPa, x1 = 0.8509	1.323	–	1.043
101 kPa, x1 = 0.9558	1.505	–	1.177
101.33 kPa, x1 = 0.1174	–	0.599	–
101.33 kPa, x1 = 0.1933	–	0.628	–
101.33 kPa, x1 = 0.2642	–	0.659	–
101.33 kPa, x1 = 0.3837	–	0.728	–
101.33 kPa, x1 = 0.4988	–	0.807	–
101.33 kPa, x1 = 0.654	–	0.945	–
101.33 kPa, x1 = 0.7474	–	1.049	–
101.33 kPa, x1 = 0.843	–	1.188	–
101.33 kPa, x1 = 0.8998	–	1.246	–

CCCC(=O)O + c1ccncc1
293.15 K, 101 kPa
Conditions	viscosity [mPa·s]
x2 = 0.152	3.474
x2 = 0.256	3.89
x2 = 0.429	3.36
x2 = 0.528	2.674
x2 = 0.642	1.996
x2 = 0.818	1.29
